Source: patent US11802107B2, “Compounds and methods of use” (Signum Biosciences, Inc., priority 2017, dated 2023)
Values after ≈ are worked out from the molar mass of the structure shown.

Columns and labels:
DEFB103 (hBD3) = test: NHEK antimicrobial peptide gene expression, hBD3; type: cell-based, human; settings: 10 μM, 24 hours, qPCR, normalized to GAPDH
Protocol: (§1) Normal human epidermal keratinocytes (NHEKs) from neonatal donors were obtained from Thermo-Fisher (Cat No. C-001-5C). Cells were cultured in 6-well plates for 24 hours before treatments with EpiLife media (Cat No. MEPI500CA) supplemented with keratinocytes growth supplement (Cat No. 50015). On Day 2, media was removed and incubated with test materials (10 μM) for 24 hours at 37° C. and 5% CO2. On Day 3, total RNA was extracted from cells using the RNAqueous® kit (Ambion®; Cat No. 1912) and cDNA was obtained using the High Capacity RNA-to-cDNA kit (Applied Biosystems®; Cat No. 4387406). Quantitative PCR (qPCR) was performed using the TaqMan® Fast Advanced Master Mix (Applied Biosystems®; Cat No. 4444556) and specific TaqMan®-probes human gene primers DEFB4B (hBD2), DEFB103 (hBD3), HCAP18 and GAPDH to calculate the relative gene fold expression change per treatment. Gene expression analysis was performed using the comparative Ct method (also known as the 2-[delta][delta]Ct) approach by comparing the Ct values of the treated samples with the untreated samples and normalized to GAPDH gene expression as endogenous housekeeping gene. Results were represented as fold-expression/untreated cells.

HCAP18 = test: NHEK antimicrobial peptide gene expression, hCAP18; type: cell-based, human; settings: 10 μM, 24 hours, qPCR, normalized to GAPDH
Protocol: as §1

IL-1b = test: P. acnes-induced IL-1b protein on human PBMCs (ELISA); type: cell-based; settings: PBMC, PBMCs + live P. acnes 1:1, test material 30 PM, 24 hours
Protocol: (§2) Cryopreserved human Peripheral Blood Mononuclear cells (PBMCs) from healthy adult donors were obtained from Zen Bio, Inc (Cat No. SER-PBMC-F). Cells were cultured in 12-well plates with lymphocyte media (Cat No. LYMPH-1) and incubated with test materials ([…]) and live P. acnes (ATCC® 6919TM) at 1:1 PBMC: P. acnes bacteria ratio for 24 hours at 37° C. and 5% CO2. After incubation, cell media supernatants were harvested and used to measure pro-inflammatory cytokine levels (IL-8, TNF-α, IL-1b, IL-17) using ELISA kits (BD Biosciences® #557966, #555212, #555244; R&D Systems® #DY317). Total RNA was extracted from cells using the RNAqueous® kit (Ambion®; Cat No. 1912) and cDNA was obtained using the High Capacity RNA-to-cDNA kit (Applied Biosystems®; Cat No. 4387406). Quantitative PCR (qPCR) was performed using the TaqMan® Fast Advanced Master Mix (Applied Biosystems®; Cat No. 4444556) and specific TaqMan®-probes human gene primers CXCL8 (IL-8), IL1B (IL-1b), TNF (TNF-α), IL17A (IL-17A) and GAPDH to calculate the relative gene fold expression change per treatment. Gene expression analysis was performed using the comparative Ct method (also known as the 2-[delta][delta]Ct) approach by comparing the Ct values of P. acnes-only treated cells with the untreated samples and normalized to GAPDH gene expression as endogenous housekeeping gene.

IL-8 [1] = test: Peptidoglycan (PGN)-induced IL-8 on NHEKs; type: cell-based, human; settings: Homo sapiens; NHEK, PGN 10 μg/mL, 24 hours, ELISA; read-out: PGN-NHEK 1L-8 Protein IC50
Protocol: (§3) Normal human epidermal keratinocytes (NHEKs) from neonatal donors were obtained from Thermo-Fisher (Cat No. C-001-5C). Cells were cultured in 96-well plates for 24 hours with EpiLife media (Cat No. MEPI500CA) supplemented with keratinocytes growth supplement (Cat No. S0015). On Day 2, media was removed and replaced with supplement-depleted medium for 24 hours. On Day 3, media was removed and cells were pre-treated with test materials (≤1 μM) for 2 hours and later co-treated with test materials and PGN (Sigma Aldrich, Cat No. 77140) at 10 μg/mL and incubated for 24 hours at 37° C. and 5% CO2. PGN is a TLR-2 agonist. After incubation, cell media supernatants were harvested and used to measure pro-inflammatory cytokine levels (IL-8) using ELISA kit (BD Biosciences® #555244). Results were represented as percent of inhibition relative to untreated and PGN-only treated cells. IC50 values were determined by non-linear regression analysis using the four-parameter logistic equation.

DEFB4B (hBD2) = test: NHEK antimicrobial peptide gene expression, hBD2; type: cell-based, human; settings: 10 μM, 24 hours, qPCR, normalized to GAPDH
Protocol: as §1

IL-8 [2] = test: P. acnes-induced IL-8 protein on human PBMCs (ELISA); type: cell-based; settings: PBMCs + live P. acnes 1:1, test material 30 PM, 24 hours
Protocol: as §2

P. acnes (ATCC 6919) [3] = test: Minimal inhibitory concentration (MIC) against P. acnes; type: cell-based, Propionibacterium acnes; settings: Cutibacterium acnes, ATCC6919, 72 h, P. acnes ATCC 6919, 10^6 CFU/mL, read-out: MIC
Protocol: To determine minimal inhibitory concentration (MIC), reagents were dissolved in vehicle (5% v/v) and then added to bacteria suspension. P. acnes (ATCC® 6919TM) at 10^6 CFU/mL was incubated with test materials at the concentrations of two-fold serial dilution (0.25-500 μg/mL) and incubated for 72 hours (P. acnes).

TNF-α = test: P. acnes-induced TNF-α protein on human PBMCs (ELISA); type: cell-based; settings: PBMCs + live P. acnes 1:1, test material 30 PM, 24 hours
Protocol: as §2

IL-17 = test: P. acnes-induced IL-17 protein on human PBMCs (ELISA); type: cell-based; settings: PBMC, PBMCs + live P. acnes 1:1, test material 30 PM, 24 hours
Protocol: as §2

[4] = tested on: subjects with mild to moderate acne; test: 8-week clinical study in subjects with mild to moderate acne; type: in vivo; set-up: scale not given here; settings: E 1% w/w, BPO 3% w/w, human
Description: Subjects used the assigned product at home for 8 weeks. Subjects returned post baseline at week 2, 4 and 8. At each visit subjects underwent expert clinical grading and test site photography. […] The severity of acne signs and symptoms on the faces of >18 yo subjects were clinically assessed by IGA scale during an 8-week Study period. In addition, UV light mode was utilized to observe porphyrins fluorescence (orange-red dots).

[5] = tested on: P. acnes (ATCC 6919) biofilms; test: P. acnes biofilm eradication (MBEC), crystal violet; type: cell-based, Propionibacterium acnes; settings: 24 hours, ≥80% eradication vs vehicle
Protocol: P. acnes (ATCC® 6919™) was cultured as described above. Bacteria biofilms were established by seeding P. acnes cultures in 96-well plates and incubating for 24 hours without agitation. Later, biofilms were incubated with test materials for 24 hours. Remaining biofilms were washed and stained with crystal violet. […] The absorbance was measured at 595 nm in a microplate reader. […] Results from disk diffusion susceptibility testing (Kirby-Bauer Method) after 72 hours incubation were also obtained.

P. acnes (ATCC 6919) [6] = test: Minimal bactericidal concentration (MBC) against P. acnes; type: cell-based, Propionibacterium acnes; settings: Cutibacterium acnes, ATCC6919; P. acnes 10^7 CFU/mL, in PBS, anaerobic conditions
IL-8 [7] = test: TPA-induced IL-8 on NHEKs; type: cell-based; settings: Homo sapiens; NHEK, TPA 5 ng/mL, 24 hours, ELISA
Protocol: as §3, with “TPA” for “PGN”, “P8139)” for “77140)”, “5 ng/mL” for “10 μg/mL”, “CO2.” for “CO2. PGN is a TLR-2 agonist.”, “TPA-only” for “PGN-only”

Swiss Webster (ICR) mice = test: TPA-induced skin irritation in vivo model (mouse ear); settings: topical @ 1% w/v, 24 hour
Protocol: Outbred male Swiss Webster (ICR) mice were purchased from Hilltop Lab Animals (Scottdale, PA) and were used between 10 and 12 weeks of age and we followed a similar protocol previously described (Gordon et al., 2008). Mice received 1.2 μg/20 μl TPA dissolved in acetone (10 μl applied both to the dorsal and ventral surfaces of the mouse ear using a solvent pipette) to each ear to induce acute irritation (6 per group). Test Materials were co-treated with TPA or applied 5 minutes after TPA dose, at various concentrations (0.6 to 800 μg/20 μl) in ethanol. After 24 hour treatment, edema was measured by ear thickness.

Balb/C mice = test: Oxazolone-induced delayed-type hypersensitivity (DTH) in vivo model; settings: Mus musculus, topical @1%, 24 hours, read-out: Edema % inhibition
Protocol: Inbred male Balb/C mice were purchased from Hilltop Lab Animals (Scottdale, PA) and were used between 8 and 10 weeks of age. Mice backs were shaved and 100 μl of 3% v/v Oxazolone (Sigma Aldrich, Cat No. E0753) in acetone/olive oil (4:1) was applied to dorsal skin for sensitization. On Day 7, ears were challenged with 0.5% v/v Oxazolone and 30 minutes after challenge, test materials at 3% w/v were applied to ears (10 μl applied both to the dorsal and ventral surfaces of the mouse ear using a solvent pipette) and 24 hours later, skin thickness (edema) was measured. A 6-mm punch biopsy was obtained from each ear, snap frozen in liquid nitrogen. Ear skin biopsy punches were pulverized using FastPrep®-24 Biopulverizer (MP Biomedical, CatNo. 116004500) and Lysing Matrix A tubes (CatNo. 16910050). Protein extracts were obtained using 500 μL/tissue of cold T-PER buffer (ThermoFisher, CatNo. 78510) with Protease inhibitors (Sigma-Aldich, CatNo. 58820-20TAB). Soluble protein fractions were used to measure cytokine levels (IL-4) using ELISA kit (BD Biosciences® #555232). Results were represented as percent of inhibition relative to unsensitized and sensitized-only treated animals. Vehicle for presently disclosed compounds was 60:40 H2O:EtOH and 1:1 Acetone:EtOH for AN2718. (n=5-15 animals per treatment group).
Compound C was further analyzed at various dosages against 0.4 mg/ear of […] by the above protocol, data representing the average±S.E. of cumulative data from three independent experiments (n=12-15 mice per group) is shown below: […]

IL-13 = test: Concanavalin-A-induced IL-13 on PBMCs; type: cell-based; settings: Homo sapiens, PBMC, ConA, 24 hours, ELISA
IL-31 = test: Anti-CD3/CD28+IL-4-induced IL-31 on PBMCs; type: cell-based; settings: Homo sapiens, PBMC, anti-CD3/CD28 beads + 50 ng/mL IL-4, 48 hours, ELISA, read-out: TCR/IL-4-PBMCs IL-31 IC50
Protocol: Cryopreserved human Peripheral Blood Mononuclear cells (PBMCs) from healthy adult donors were obtained from Zen Bio, Inc (Cat No. SER-PBMC-F). Cells were cultured in 96-well plates with lymphocyte media (Cat No. LYMPH-1) and were pre-treated with test materials (≤100 μM) for 2 hours and later co-treated with test materials and anti-CD3/CD28 beads (Thermo-Fisher; Cat No. 11131D) and 50 ng/mL recombinant human IL-4 (R&D Systems® #204-IL) for 48 hours at 37° C. and 5% CO2. After incubation, cell media supernatants were harvested and used to measure cytokine levels (IL-22, IL-31) using ELISA kits (R&D Systems® #DY782, #DY2824). Results were represented as percent of inhibition relative to untreated and anti-CD3/CD28+IL-4 only treated cells. IC50 values were determined by non-linear regression analysis using the four-parameter logistic equation.

Structure (SMILES): O=C(OOC(=O)c1ccccc1)c1ccccc1 [Benzoyl Peroxide, reference compound]
- hBD3 gene expression (DEFB103 (hBD3)): 1.2 Fold-expression/untreated cells
- hCAP18 gene expression (HCAP18): 2.8 Fold-expression/untreated cells
- inhibition at 30 pM (IL-1b): 33%
- IC50 (IL-8 [1]): > 1000 nM
- hBD2 gene expression (DEFB4B (hBD2)): 1.6 Fold-expression/untreated cells
- IL-8 Protein % inhibition (IL-8 [2]): 78%
- MIC (P. acnes (ATCC 6919) [3]): 200 µg/mL (≈ 826 µM)
- TNFa-Protein % inhibition (TNF-α): 0%
- inhibition at 30 pM (IL-17): 15%
- Investigator Global Assesment (IGA) Scale ([4]; 2 week): 2
- Investigator Global Assesment (IGA) Scale ([4]; 4 week): 1
- Investigator Global Assesment (IGA) Scale ([4]; 8 week): 1
- Investigator Global Assesment (IGA) Scale ([4]; Baseline): 3
- MBEC [5]: 367 μg/mL and (1515) μM
- MBC (P. acnes (ATCC 6919) [6]): > 200 µg/mL

Structure (SMILES): C=CC[C@@H]1/C=C(\C)C[C@H](C)C[C@H](OC)[C@H]2O[C@@](O)(C(=O)C(=O)N3CCCC[C@H]3C(=O)O[C@H](/C(C)=C/[C@@H]3CC[C@@H](O)[C@H](OC)C3)[C@H](C)[C@@H](O)CC1=O)[C@H](C)C[C@@H]2OC [FK506, reference compound]
- IC50 (IL-8 [7]): 10 nM
- MPO (% inhibition) (Swiss Webster (ICR) mice): 81%
- Edema (% inhibition) (Swiss Webster (ICR) mice; ear thickness): 0%
- inhibition in vivo at 1 % (Balb/C mice): 32%
- IC50 (IL-13): 600 nM
- IC50 (IL-31): 0.4 nM
